Data set [1] deals with Serine/threonine-protein kinase 16 (Homo sapiens) (UniProt O75716). The experiment in a line: Inhibition of wild-type human partial length STK16 (G11 to I305 residues) expressed in bacterial expression system at 1 uM by Kinomescan method relative to control.
The target in data set [2] is Megakaryocyte-associated tyrosine-protein kinase (Homo sapiens) (UniProt P42679). The experiment in a line: Inhibition of wild-type human full length CTK (M43 to P508 residues) expressed in mammalian expression system at 1 uM by Kinomescan method relative to control.
Data set [3] addresses Casein kinase II subunit alpha (Homo sapiens) (UniProt P68400). The experiment in a line: Inhibition of wild-type human full length CSNK2A1 (M1 to Q391 residues) expressed in mammalian expression system at 1 uM by Kinomescan method relative to control.
The target of data set [4] is cGMP-dependent protein kinase 1 (Homo sapiens) (UniProt Q13976). The experiment in a line: Inhibition of wild-type human partial length PRKG1 (L339 to F686 residues) expressed in bacterial expression system at 1 uM by Kinomescan method relative to control.
For data set [5], the target named is Serine/threonine-protein kinase Nek3 (Homo sapiens) (UniProt P51956). The experiment in a line: Inhibition of wild-type human full length NEK3 (M1 to R506 residues) expressed in mammalian expression system at 1 uM by Kinomescan method relative to control.
In data set [6] the target is Cyclin-dependent kinase 11A (Homo sapiens) (UniProt Q9UQ88). The experiment in a line: Inhibition of wild-type human partial length CDC2L2 (D391 to K730 residues) expressed in bacterial expression system at 1 uM by Kinomescan method relative to control.
Data set [7] has as its target Serine/threonine-protein kinase TAO3 (Homo sapiens) (UniProt Q9H2K8). The experiment in a line: Inhibition of wild-type human partial length TAOK3 (M1 to T316 residues) expressed in mammalian expression system at 1 uM by Kinomescan method relative to control.
Data set [8] concerns the target Ephrin type-A receptor 4 (Homo sapiens) (UniProt P54764). The experiment in a line: Inhibition of wild-type human partial length EPHA4 (T601 to R897 residues) expressed in bacterial expression system at 1 uM by Kinomescan method relative to control.
The target in data set [9] is Cyclin-G-associated kinase (Homo sapiens) (UniProt O14976). The experiment in a line: Inhibition of wild-type human partial length GAK (G13 to Y338 residues) expressed in bacterial expression system at 1 uM by Kinomescan method relative to control.
In data set [10] the target is Cyclin-dependent kinase-like 2 (Homo sapiens) (UniProt Q92772). The experiment in a line: Inhibition of wild-type human partial length CDKL2 (M1 to D327 residues) expressed in bacterial expression system at 1 uM by Kinomescan method relative to control.
Data set [11] relates to Tyrosine-protein kinase ABL1 (Homo sapiens), P00519 [Q252H]. The experiment in a line: Inhibition of human phosphorylated ABL1 Q252H mutant expressed in mammalian expression system at 1 uM by Kinomescan method relative to control.
In data set [12] the target is MAP kinase-interacting serine/threonine-protein kinase 2 (Homo sapiens) (UniProt Q9HBH9). The experiment in a line: Inhibition of wild-type human partial length MKNK2 (G63 to S388 residues) expressed in mammalian expression system at 1 uM by Kinomescan method relative to control.
In data set [13] the target is Ephrin type-A receptor 5 (Homo sapiens) (UniProt P54756). The experiment in a line: Inhibition of wild-type human partial length EPHA5 (T627 to V930 residues) expressed in bacterial expression system at 1 uM by Kinomescan method relative to control.
For data set [14], the target named is CDK4/Cyclin D3 (Homo sapiens) (UniProt P11802+P30281). The experiment in a line: Inhibition of wild-type human full length CDK4/cyclinD3 (M1 to E303 residues) expressed in mammalian expression system at 10 uM by Kinomescan method relative to control.
A short description of data set [15]: Solubility of the compound at pH 6.8. The following applies: buffer. Format: physicochemical.
Data set [16] addresses Serine/threonine-protein kinase NIM1 (Homo sapiens) (UniProt Q8IY84). The experiment in a line: Inhibition of wild-type human partial length NIM1 (Q44 to N355 residues) expressed in mammalian expression system at 10 uM by Kinomescan method relative to control.
For data set [17], the target named is Serine/threonine-protein kinase PAK 6 (Homo sapiens) (UniProt Q9NQU5). The experiment in a line: Inhibition of wild-type human partial length PAK6 (N298 to C681 residues) expressed in bacterial expression system at 10 uM by Kinomescan method relative to control.
The target of data set [18] is Serine/threonine-protein kinase 17B (Homo sapiens) (UniProt O94768). The experiment in a line: Inhibition of wild-type human full length DRAK2 (M1 to C372 residues) expressed in bacterial expression system at 10 uM by Kinomescan method relative to control.
Data set [19] addresses Serine/threonine-protein kinase NLK (Homo sapiens) (UniProt Q9UBE8). The experiment in a line: Inhibition of wild-type human full length NLK (M13 to E527 residues) expressed in bacterial expression system at 10 uM by Kinomescan method relative to control.
The target in data set [20] is Serine/threonine-protein kinase pim-1 (Homo sapiens) (UniProt P11309). The experiment in a line: Inhibition of wild-type human partial length PIM1 (A15 to K313 residues) expressed in bacterial expression system at 10 uM by Kinomescan method relative to control.
Data set [21] has as its target MAP kinase-interacting serine/threonine-protein kinase 2 (Homo sapiens) (UniProt Q9HBH9). The experiment in a line: Inhibition of wild-type human partial length MKNK2 (G63 to S388 residues) expressed in mammalian expression system at 10 uM by Kinomescan method relative to control.
For data set [22], the target named is Mitogen-activated protein kinase kinase kinase 12 (Homo sapiens) (UniProt Q12852). The experiment in a line: Inhibition of wild-type human full length DLK (M1 to P859 residues) expressed in mammalian expression system at 10 uM by Kinomescan method relative to control.
Data set [23] relates to Receptor-type tyrosine-protein kinase FLT3 (Homo sapiens), P36888 [D835H]. The experiment in a line: Inhibition of human partial length FLT3 D835H mutant (V592 to Y969 residues) expressed in bacterial expression system at 10 uM by Kinomescan method relative to control.
Data set [24] has as its system Phosphatidylinositol 4,5-bisphosphate 3-kinase catalytic subunit alpha isoform (Homo sapiens), P42336 [E545K]. The experiment in a line: Inhibition of human partial length PIK3CA E545K mutant (R108 to N1068 residues) expressed in mammalian expression system at 10 uM by Kinomescan method relative to control.
The subject of data set [25] is Mast/stem cell growth factor receptor Kit (Homo sapiens), P10721 [L576P]. The experiment in a line: Inhibition of human partial length KIT L576P mutant (Y545 to D952 residues) expressed in bacterial expression system at 10 uM by Kinomescan method relative to control.
Data set [26] concerns the target Mitogen-activated protein kinase kinase kinase 5 (Homo sapiens) (UniProt Q99683). The experiment in a line: Inhibition of wild-type human partial length ASK1 (E648 to S964 residues) expressed in bacterial expression system at 10 uM by Kinomescan method relative to control.
For data set [27], the system named is Tyrosine-protein kinase ABL1 (Homo sapiens), P00519 [F317I]. The experiment in a line: Inhibition of human phosphorylated ABL1 F317I mutant (S229 to K512 residues) expressed in mammalian expression system at 10 uM by Kinomescan method relative to control.
The target in data set [28] is Cyclin-dependent kinase 14 (Homo sapiens) (UniProt O94921). The experiment in a line: Inhibition of wild-type human full length PFTK1 (M1 to H451 residues) expressed in bacterial expression system at 10 uM by Kinomescan method relative to control.

One may read the inhibition as the relative decrease from the control value, in per cent. A low value points to little suppression. By solubility is commonly meant how much of the substance goes into solution per volume. Read a low solubility as a poorly soluble substance.

Bounds are passed on as bounds.

For the molecule `O=C(Nc1cccc([C@@H]2CN(c3ncnc4[nH]ccc34)CCN2CCO)c1)Nc1c(F)cccc1N1CCCC1`, the inhibition in data set [1] came to 82%; in data set [2], 81%; in data set [3] it was 93%; in [4], 100%; in data set [5], 65%; in data set [6], 96%. In addition, the inhibition in data set [7] worked out at 88%; in [8] it was 100%; in [9], 96%; in data set [10] it was 100%; in [11], 95%; in [12], 64%. Besides, the inhibition in data set [13] was 92%.
With `O=C(Nc1cccc([C@H]2CCCN(c3ncnc4[nH]ccc34)C2)c1)Nc1ccccc1N1CCCC1`, the inhibition is 100% in data set [14]; 75% in data set [16]; 85% in [17]; 74% in data set [18]; 96% in data set [19]; 84% in data set [20]. Moreover, the inhibition in data set [21] was determined as 34%; in data set [22] it was 69%; in data set [23] it was 1.3%; in data set [24] it was 64%; in data set [25], 0.2%; in data set [26] it was 100%. For the same molecule, the inhibition in data set [27] stood at 94%; in [28], 61%. The solubility in [15] was less than 1 µg/mL.

Source of the values: ChEMBL document CHEMBL4387741, “Optimization of novel reversible Bruton's tyrosine kinase inhibitors identified using Tethering-fragment-based screens” (Bioorg Med Chem, 2019).
